In patent US20260022142A1, “MACROCYCLIC IMMUNOMODULATORS” (Bristol-Myers Squibb Company, priority 2022, published 2026):
Bridge positions count the residues as written; N and C are the ends. Square brackets hold non-standard residues; d marks the D form. Peptide text beside a SMILES is read from it. * marks the point of attachment. Bip = N[C@@H](Cc1ccc(-c2ccccc2)cc1)C(=O)O; Phe(3-Me) = Cc1cccc(C[C@H](N)C(=O)O)c1; Cha = N[C@@H](CC1CCCCC1)C(=O)O; Carboxymethyl = O=C(O)C*; Orn = NCCC[C@H](N)C(=O)O; Aun = NCCCCCCCCCCC(=O)O; Dab = NCC[C@H](N)C(=O)O; Dap = NC[C@H](N)C(=O)O; AEEA = NCCOCCOCC(=O)O

The compounds below were run against T1, PD-1/PD-L1 interaction (PE-labeled human PD-L1-Ig binding to Jurkat cell line over-expressing human PD-1) (Homo sapiens, UniProt Q15116) (assay: Jurkat-PD-1 Cell Binding High-Content Screening Assay (CBA)). Settings: Jurkat cell line over-expressing human PD-1; PE-labeled PD-L1-Ig 20 nM final; read-out: Jurkat hPD1-PDL1 IC50.
T1 construct: expressed in transfected cells; host or cells: Jurkat
Format: cell-based
Outline: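 Jurkat cells over-expressing human PD-1 (8×10^3 per well, DMEM/10% FCS) preincubated with compound 2 h at 37° C, then PE-labeled human PD-L1-Ig (20 nM final) added for 1 h. Cells fixed with paraformaldehyde, Hoechst-stained, and bound fluorescence quantified by high-content imaging.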

T1 sequence (Q15116 25-288): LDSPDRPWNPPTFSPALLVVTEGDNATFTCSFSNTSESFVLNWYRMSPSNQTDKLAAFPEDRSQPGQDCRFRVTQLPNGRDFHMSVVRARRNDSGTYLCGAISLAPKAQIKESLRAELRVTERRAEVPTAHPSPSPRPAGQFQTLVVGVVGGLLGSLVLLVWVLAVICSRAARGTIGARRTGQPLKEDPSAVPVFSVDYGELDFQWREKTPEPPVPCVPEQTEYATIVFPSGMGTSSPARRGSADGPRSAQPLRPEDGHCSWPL

SMILES	IC50 [µM]
CC(C)C[C@H]1NC(=O)[C@H](CCCN)NC(=O)[C@H](C(C)C)NC(=O)[C@H](Cc2ccc(-c3ccccc3)cc2)NC(=O)[C@H](C(C)C)NC(=O)[C@H](Cc2c[nH]c3ccccc23)NC(=O)[C@H](CC(=O)O)NC(=O)[C@H](Cc2ccc(OCC(=O)O)cc2)NC(=O)[C@H](CN)NC(=O)CSC[C@@H](C(=O)NCCOCCOCC(=O)NCCCCCCCCCCC(=O)O)NC(=O)[C@H]([C@@H](C)O)NC(=O)[C@H](C(C)C)NC(=O)[C@H](CC2CCCCC2)NC(=O)[C@H](Cc2cnc[nH]2)NC1=O [Compound 1100] ({CH2CO}-[Dap]Y(Carboxymethyl)DWV[Bip]V[Orn][dL]H[Cha]VTC[AEEA][Aun]-OH; thioether N-14)	0.0088
Cc1cccc(C[C@@H]2NC(=O)[C@H](CC(=O)O)NC(=O)[C@H](Cc3ccc(OCC(=O)O)cc3)NC(=O)[C@H](CN)NC(=O)CSC[C@@H](C(=O)N[C@@H](CCN)C(=O)NCCCCCCCCCCC(=O)O)NC(=O)[C@H]([C@@H](C)O)NC(=O)[C@H](C(C)C)NC(=O)[C@H](CC3CCCCC3)NC(=O)[C@H](Cc3cnc[nH]3)NC(=O)[C@@H](CC(C)C)NC(=O)[C@H](CCCN)NC(=O)[C@H](C(C)C)NC(=O)[C@H](Cc3ccc(-c4ccccc4)cc3)NC(=O)[C@H](C(C)C)NC2=O)c1 [Compound 1101] ({CH2CO}-[Dap]Y(Carboxymethyl)D[Phe(3-Me)]V[Bip]V[Orn][dL]H[Cha]VTC[Dab][Aun]-OH; thioether N-14)	0.0696
Cc1cccc(C[C@@H]2NC(=O)[C@H](CC(=O)O)NC(=O)[C@H](Cc3ccc(OCC(=O)O)cc3)NC(=O)[C@H](CN)NC(=O)CSC[C@@H](C(=O)N[C@@H](C)C(=O)N[C@@H](CCC(=O)O)C(=O)NCCCCCCCCCCC(=O)O)NC(=O)[C@H]([C@@H](C)O)NC(=O)[C@H](C(C)C)NC(=O)[C@H](CC3CCCCC3)NC(=O)[C@H](Cc3cnc[nH]3)NC(=O)[C@@H](CC(C)C)NC(=O)[C@H](CCCN)NC(=O)[C@H](C(C)C)NC(=O)[C@H](Cc3ccc(-c4ccccc4)cc3)NC(=O)[C@H](C(C)C)NC2=O)c1 [Compound 1103] ({CH2CO}-[Dap]Y(Carboxymethyl)D[Phe(3-Me)]V[Bip]V[Orn][dL]H[Cha]VTCAE[Aun]-OH; thioether N-14)	0.0291
CC(C)C[C@H]1NC(=O)[C@H](CCCN)NC(=O)[C@H](C(C)C)NC(=O)[C@H](Cc2ccc(-c3ccccc3)cc2)NC(=O)[C@H](C(C)C)NC(=O)[C@H](Cc2c[nH]c3ccccc23)NC(=O)[C@H](CC(=O)O)NC(=O)[C@H](Cc2ccc(OCC(=O)O)cc2)NC(=O)[C@H](CN)NC(=O)CSC[C@@H](C(=O)NCCOCCOCC(=O)N[C@@H](CC(=O)O)C(=O)NCCCCCCCCCCC(=O)O)NC(=O)[C@H]([C@@H](C)O)NC(=O)[C@H](C(C)C)NC(=O)[C@H](CC2CCCCC2)NC(=O)[C@H](Cc2cnc[nH]2)NC1=O [Compound 1105] ({CH2CO}-[Dap]Y(Carboxymethyl)DWV[Bip]V[Orn][dL]H[Cha]VTC[AEEA]D[Aun]-OH; thioether N-14)	0.023
Cc1cccc(C[C@@H]2NC(=O)[C@H](CC(=O)O)NC(=O)[C@H](Cc3ccc(OCC(=O)O)cc3)NC(=O)[C@H](CN)NC(=O)CSC[C@@H](C(=O)N[C@@H](CCC(=O)O)C(=O)NCC(=O)NCCCCCCCCCCC(=O)O)NC(=O)[C@H]([C@@H](C)O)NC(=O)[C@H](C(C)C)NC(=O)[C@H](CC3CCCCC3)NC(=O)[C@H](Cc3cnc[nH]3)NC(=O)[C@@H](CC(C)C)NC(=O)[C@H](CCCN)NC(=O)[C@H](C(C)C)NC(=O)[C@H](Cc3ccc(-c4ccccc4)cc3)NC(=O)[C@H](C(C)C)NC2=O)c1 [Compound 1106] ({CH2CO}-[Dap]Y(Carboxymethyl)D[Phe(3-Me)]V[Bip]V[Orn][dL]H[Cha]VTCEG[Aun]-OH; thioether N-14)	0.0265
Cc1cccc(C[C@@H]2NC(=O)[C@H](CC(=O)O)NC(=O)[C@H](Cc3ccc(OCC(=O)O)cc3)NC(=O)[C@H](CN)NC(=O)CSC[C@@H](C(=O)N[C@@H](CC(=O)O)C(=O)NCCCCCCCCCCC(=O)O)NC(=O)[C@H]([C@@H](C)O)NC(=O)[C@H](C(C)C)NC(=O)[C@H](CC3CCCCC3)NC(=O)[C@H](Cc3cnc[nH]3)NC(=O)[C@@H](CC(C)C)NC(=O)[C@H](CCCN)NC(=O)[C@H](C(C)C)NC(=O)[C@H](Cc3ccc(-c4ccccc4)cc3)NC(=O)[C@H](C(C)C)NC2=O)c1 [Compound 1107] ({CH2CO}-[Dap]Y(Carboxymethyl)D[Phe(3-Me)]V[Bip]V[Orn][dL]H[Cha]VTCD[Aun]-OH; thioether N-14)	0.0358
Cc1cccc(C[C@@H]2NC(=O)[C@H](CC(=O)O)NC(=O)[C@H](Cc3ccc(OCC(=O)O)cc3)NC(=O)[C@H](CN)NC(=O)CSC[C@@H](C(=O)N[C@@H](CCC(=O)O)C(=O)NCCCCCCCCCCC(=O)O)NC(=O)[C@H]([C@@H](C)O)NC(=O)[C@H](C(C)C)NC(=O)[C@H](CC3CCCCC3)NC(=O)[C@H](Cc3cnc[nH]3)NC(=O)[C@@H](CC(C)C)NC(=O)[C@H](CCCN)NC(=O)[C@H](C(C)C)NC(=O)[C@H](Cc3ccc(-c4ccccc4)cc3)NC(=O)[C@H](C(C)C)NC2=O)c1 [Compound 1108] ({CH2CO}-[Dap]Y(Carboxymethyl)D[Phe(3-Me)]V[Bip]V[Orn][dL]H[Cha]VTCE[Aun]-OH; thioether N-14)	0.027
Cc1cccc(C[C@@H]2NC(=O)[C@H](CC(=O)O)NC(=O)[C@H](Cc3ccc(OCC(=O)O)cc3)NC(=O)[C@H](CN)NC(=O)CSC[C@@H](C(=O)N[C@@H](CCCN)C(=O)NCCCCCCCCCCC(=O)O)NC(=O)[C@H]([C@@H](C)O)NC(=O)[C@H](C(C)C)NC(=O)[C@H](CC3CCCCC3)NC(=O)[C@H](Cc3cnc[nH]3)NC(=O)[C@@H](CC(C)C)NC(=O)[C@H](CCCN)NC(=O)[C@H](C(C)C)NC(=O)[C@H](Cc3ccc(-c4ccccc4)cc3)NC(=O)[C@H](C(C)C)NC2=O)c1 [Compound 1109] ({CH2CO}-[Dap]Y(Carboxymethyl)D[Phe(3-Me)]V[Bip]V[Orn][dL]H[Cha]VTC[Orn][Aun]-OH; thioether N-14)	0.0376
Cc1cccc(C[C@@H]2NC(=O)[C@H](CC(=O)O)NC(=O)[C@H](Cc3ccc(OCC(=O)O)cc3)NC(=O)[C@H](CN)NC(=O)CSC[C@@H](C(=O)N[C@@H](CCCCN)C(=O)NCCCCCCCCCCC(=O)O)NC(=O)[C@H]([C@@H](C)O)NC(=O)[C@H](C(C)C)NC(=O)[C@H](CC3CCCCC3)NC(=O)[C@H](Cc3cnc[nH]3)NC(=O)[C@@H](CC(C)C)NC(=O)[C@H](CCCN)NC(=O)[C@H](C(C)C)NC(=O)[C@H](Cc3ccc(-c4ccccc4)cc3)NC(=O)[C@H](C(C)C)NC2=O)c1 [Compound 1110] ({CH2CO}-[Dap]Y(Carboxymethyl)D[Phe(3-Me)]V[Bip]V[Orn][dL]H[Cha]VTCK[Aun]-OH; thioether N-14)	0.033
Cc1cccc(C[C@@H]2NC(=O)[C@H](CC(=O)O)NC(=O)[C@H](Cc3ccc(OCC(=O)O)cc3)NC(=O)[C@H](CN)NC(=O)CSC[C@@H](C(=O)N[C@@H](C)C(=O)N[C@@H](CN)C(=O)NCCCCCCCCCCC(=O)O)NC(=O)[C@H]([C@@H](C)O)NC(=O)[C@H](C(C)C)NC(=O)[C@H](CC3CCCCC3)NC(=O)[C@H](Cc3cnc[nH]3)NC(=O)[C@@H](CC(C)C)NC(=O)[C@H](CCCN)NC(=O)[C@H](C(C)C)NC(=O)[C@H](Cc3ccc(-c4ccccc4)cc3)NC(=O)[C@H](C(C)C)NC2=O)c1 [Compound 1111] ({CH2CO}-[Dap]Y(Carboxymethyl)D[Phe(3-Me)]V[Bip]V[Orn][dL]H[Cha]VTCA[Dap][Aun]-OH; thioether N-14)	0.0642
Cc1cccc(C[C@@H]2NC(=O)[C@H](CC(=O)O)NC(=O)[C@H](Cc3ccc(OCC(=O)O)cc3)NC(=O)[C@H](CN)NC(=O)CSC[C@@H](C(=O)N[C@@H](C)C(=O)N[C@@H](CCN)C(=O)NCCCCCCCCCCC(=O)O)NC(=O)[C@H]([C@@H](C)O)NC(=O)[C@H](C(C)C)NC(=O)[C@H](CC3CCCCC3)NC(=O)[C@H](Cc3cnc[nH]3)NC(=O)[C@@H](CC(C)C)NC(=O)[C@H](CCCN)NC(=O)[C@H](C(C)C)NC(=O)[C@H](Cc3ccc(-c4ccccc4)cc3)NC(=O)[C@H](C(C)C)NC2=O)c1 [Compound 1112] ({CH2CO}-[Dap]Y(Carboxymethyl)D[Phe(3-Me)]V[Bip]V[Orn][dL]H[Cha]VTCA[Dab][Aun]-OH; thioether N-14)	0.0182
Cc1cccc(C[C@@H]2NC(=O)[C@H](CC(=O)O)NC(=O)[C@H](Cc3ccc(OCC(=O)O)cc3)NC(=O)[C@H](CN)NC(=O)CSC[C@@H](C(=O)N[C@@H](C)C(=O)N[C@@H](CCCN)C(=O)NCCCCCCCCCCC(=O)O)NC(=O)[C@H]([C@@H](C)O)NC(=O)[C@H](C(C)C)NC(=O)[C@H](CC3CCCCC3)NC(=O)[C@H](Cc3cnc[nH]3)NC(=O)[C@@H](CC(C)C)NC(=O)[C@H](CCCN)NC(=O)[C@H](C(C)C)NC(=O)[C@H](Cc3ccc(-c4ccccc4)cc3)NC(=O)[C@H](C(C)C)NC2=O)c1 [Compound 1113] ({CH2CO}-[Dap]Y(Carboxymethyl)D[Phe(3-Me)]V[Bip]V[Orn][dL]H[Cha]VTCA[Orn][Aun]-OH; thioether N-14)	0.0302
CC(C)C[C@H]1NC(=O)[C@H](CCCN)NC(=O)[C@H](C(C)C)NC(=O)[C@H](Cc2ccc(-c3ccccc3)cc2)NC(=O)[C@H](C(C)C)NC(=O)[C@H](Cc2c[nH]c3ccccc23)NC(=O)[C@H](CC(=O)O)NC(=O)[C@H](Cc2ccc(OCC(=O)O)cc2)NC(=O)[C@H](CN)NC(=O)CSC[C@@H](C(=O)N[C@@H](C)C(=O)N[C@@H](CO)C(=O)NCCCCCCCCCCC(=O)O)NC(=O)[C@H]([C@@H](C)O)NC(=O)[C@H](C(C)C)NC(=O)[C@H](CC2CCCCC2)NC(=O)[C@H](Cc2cnc[nH]2)NC1=O [Compound 1114] ({CH2CO}-[Dap]Y(Carboxymethyl)DWV[Bip]V[Orn][dL]H[Cha]VTCAS[Aun]-OH; thioether N-14)	0.061
